Results from patent US9321772B2, “Substituted pyrazolo[3,4-D]pyrimidines and uses thereof” (The Regents of the University of California, priority 2011, dated 2016).
Entries after “also recorded” stand apart in the source; their conditions may differ.

Legend:
EGFR (T790M) = EGFR (T790M) (Homo sapiens, UniProt P00533, T790M); assay: In vitro kinase assay, EGFR gatekeeper mutant; format: biochemical; conditions: 1 μM
Procedure: FIG. 10F. Selectivity profiles for a subset of kinases. The gatekeeper mutant alleles of RET, ABL1, and EGFR are V804L, T315I and T790M, respectively.
(§1) Using in vitro kinase assays we tested AD57, AD36, and AD58 at 1 μM for activity against approximately one-half of the human kinome (FIG. 1E): 165 Ser/Thr kinases, 91 Tyr kinases, and 10 PI kinases were assayed, totaling 266 kinases (244 distinct kinases plus 22 mutant isoforms; see FIG. 6A-6C, FIG. 7A-7F, and FIG. 8 for measured inhibition values).

B-Raf = B-Raf (Homo sapiens, UniProt P15056); assay: In vitro kinase assay, B-Raf; format: biochemical; conditions: in vitro kinase profile, 1 μM
Procedure: as §1
(§2) At least three major pathways are required for dRet^MEN2B-mediated transformation: Ras, Src, and glucose metabolism/PI3K (FIG. 3A; Ref (Read, R. D. et al., Genetics, 2005. 171(3): p. 1057-81)). We utilized in vitro kinase assays to assess compound activity against relevant kinases from each of these pathways, specifically Ret, B-Raf, Src, Tor, and S6K (FIG. 3B).

[1] = test system: MEN2B (MZ) thyroid cancer cells; assay: Immunoblot analysis of drug-treated MZ cells; format: cell-based, human; conditions: for phospho-Ret and downstream biomarkers: 1 hour of treatment; for cell death (protein markers of apoptosis): 3 days, 2 μM
Procedure: FIG. 19. […] MEN2A (TT) and MEN2B (MZ) thyroid cancer cells were treated with the indicated drugs for 3 days at a final concentration of 2 μM. Cell lystates were immunoblotted for protein markers of apoptosis. Vandetanib (vand.) was included for comparison.
FIG. 20A-20B. […] FIG. 20A. MEN2B (MZ) and FIG. 20B. MEN2A (TT) thyroid cancer cells were treated with the indicated concentrations of drug. Following 1 hour of treatment, cells were harvested and lysates prepared for immunoblotting to detect the indicated proteins. VD=vandetanib; SF=sorafenib.

ptc>dRet^MEN2B flies = assay: Drosophila ptc>dRetMEN2B viability assay; format: in vivo; conditions: for notum, scutellum and cuticle defects of ptc>dRetMEN2B adults: drug fed flies; for effect of reducing erk gene dosage on drug efficacy in viability assay: ptc>dRetMEN2B
From the text: FIG. 1A. Suppression of Ret^MEN2B-induced developmental block and whole animal toxicity were scored based on number of embryos (n) that survived as pupae (x) and adults (y). Drugs were mixed into food and fed to flies starting at larval stages.
FIG. 1B. Percent viability of control or drug treated flies determined for pupae (x/n) and adults (y/n).
Described herein is a Drosophila MEN2B model in which an intracellular mutation in the Drosophila Ret ortholog (dRet) was targeted to the eye (Read, R. D. et al., Genetics, 2005. 171(3): p. 1057-81). […] The screen is conducted in developing drosophila embryos. Under normal circumstances, drosophila embryos pass through four developmental steps: embryo→larvae→pupae→adult. […] We calibrated the ptc>dRetMEN2B assay to permit 50% survival to pupariation and 0% survival to adulthood. Mutated forms of RET are believed to be causative in human thyroid cancers including multiple endocrine neoplasia types 2A and 2B (MEN2A and MEN2B). The screen identifies small molecules that (a) suppress the toxicity induced by oncogenic RET and (b) allow flies to develop to functional adults. […] 64(19): p. 7099-109; Sun, L. et al., J Med Chem, 2003. 46(7): p.

S6K = S6K (Homo sapiens, UniProt P23443); assay: In vitro kinase assay, S6K; format: biochemical; conditions: in vitro kinase profile, 1 μM
Procedure: as §1, §2

[2] = test system: 266 kinases (approximately one-half of the human kinome); assay: Kinome-wide in vitro kinase profiling; format: biochemical; conditions: 1 μM; among AD36, AD57, AD58
From the text: FIG. 6A-6C Select Screen Inhibition Data for Tyrosine Kinases. Percent inhibition of kinase activity. Dark gray is greater than 80% inhibition, white is 40-80% inhibition, and light gray is less than 40% inhibition. Hashed boxes indicate no useful data was obtained. Full assay conditions described at www.invitrogen.com/kinaseprofiling.
FIG. 7A-7F Select Screen Inhibition Data for Serine/Threonine Kinases. Percent inhibition of kinase activity. Dark gray is greater than 80% inhibition, white is 40-80% inhibition, and light gray is less than 40% inhibition. Hashed boxes indicate no useful data was obtained. Full assay conditions described at www.invitrogen.com/kinaseprofiling.
FIG. 8 Select Screen Inhibition Data for Lipid Kinases. Percent inhibition of kinase activity. Dark gray is greater than 80% inhibition, white is 40-80% inhibition, and light gray is less than 40% inhibition. Hashed boxes indicate no useful data was obtained. Full assay conditions described at www.invitrogen.com/kinaseprofiling.
as §1

[3] = test system: ER4 cells (ER4 subline of HCC827 cells resistant to erlotinib); assay: Erlotinib sensitivity of ER4 cells with AXL inhibitor treatment; format: cell-based; conditions: 0.1, 1, 10 micromolar in combination with erlotinib
From the text: FIG. 21A-21C. Overcoming acquired resistance through AXL inhibitor treatment. Erlotinib plus AD57, AD80, or AD81 in ER4 cells (ER4 subline of HCC827 cells that are resistant to erlotinib treatment). Legend: diamond symbols are DMSO control, square symbols are 0.1 micromolar of compound, triangle symbols are 1 micromolar of compound, x symbol are 10 micromolar of compound, all in combination with erlotinib.

TPC1 cells = assay: AnnexinV/PI flow cytometry apoptosis assay in TPC1 cells; format: cell-based, human
Procedure: FIG. 25. TPC1 cells were grown in 6 well dishes at 70-80% confluence in growth media supplemented with 10% FBS. TPC1 cells were treated with either AD80, the MEK inhibitor PD325901 or a combination of both inhibitors at indicated concentrations for 72 h. Induction of apoptosis was measured using flow cytometry based counting of AnnexinV/PI positive cells.

[4] = oral administration, drug mixed into food

Chain of S6K (P23443 whole entry): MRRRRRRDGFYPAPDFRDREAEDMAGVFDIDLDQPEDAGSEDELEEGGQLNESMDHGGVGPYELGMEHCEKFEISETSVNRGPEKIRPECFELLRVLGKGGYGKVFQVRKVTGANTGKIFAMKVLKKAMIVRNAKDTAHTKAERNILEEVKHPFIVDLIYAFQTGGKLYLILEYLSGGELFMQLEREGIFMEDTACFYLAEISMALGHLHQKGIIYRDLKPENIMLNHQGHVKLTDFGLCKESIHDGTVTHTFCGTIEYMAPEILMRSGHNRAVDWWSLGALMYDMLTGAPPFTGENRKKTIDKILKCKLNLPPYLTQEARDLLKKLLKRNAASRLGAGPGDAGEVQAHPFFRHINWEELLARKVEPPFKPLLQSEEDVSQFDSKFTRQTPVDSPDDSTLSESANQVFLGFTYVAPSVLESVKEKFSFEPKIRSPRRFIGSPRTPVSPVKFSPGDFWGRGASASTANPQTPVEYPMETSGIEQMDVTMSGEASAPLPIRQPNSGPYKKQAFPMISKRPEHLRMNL
Chain of B-Raf (P15056 whole entry): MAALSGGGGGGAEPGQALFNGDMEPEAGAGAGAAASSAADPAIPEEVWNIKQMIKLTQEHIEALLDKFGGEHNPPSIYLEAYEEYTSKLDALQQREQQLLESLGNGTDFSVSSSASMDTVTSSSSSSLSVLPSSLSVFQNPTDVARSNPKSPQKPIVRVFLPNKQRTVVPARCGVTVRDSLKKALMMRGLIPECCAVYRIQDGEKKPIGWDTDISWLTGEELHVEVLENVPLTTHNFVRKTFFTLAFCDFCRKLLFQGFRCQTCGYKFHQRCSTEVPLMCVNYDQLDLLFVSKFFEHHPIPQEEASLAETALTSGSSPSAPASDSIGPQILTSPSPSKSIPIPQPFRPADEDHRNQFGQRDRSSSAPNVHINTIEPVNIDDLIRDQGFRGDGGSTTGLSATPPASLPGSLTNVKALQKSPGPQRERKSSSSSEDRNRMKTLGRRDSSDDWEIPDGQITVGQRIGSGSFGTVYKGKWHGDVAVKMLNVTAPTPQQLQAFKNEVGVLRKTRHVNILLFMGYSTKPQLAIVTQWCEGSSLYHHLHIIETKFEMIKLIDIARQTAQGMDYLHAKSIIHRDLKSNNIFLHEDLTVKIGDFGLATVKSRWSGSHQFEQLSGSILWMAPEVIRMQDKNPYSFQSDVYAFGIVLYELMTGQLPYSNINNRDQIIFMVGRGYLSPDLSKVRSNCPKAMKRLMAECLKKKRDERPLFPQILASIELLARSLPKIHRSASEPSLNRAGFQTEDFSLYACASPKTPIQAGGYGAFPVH
Chain of EGFR (T790M) (P00533 25-1210 T790M): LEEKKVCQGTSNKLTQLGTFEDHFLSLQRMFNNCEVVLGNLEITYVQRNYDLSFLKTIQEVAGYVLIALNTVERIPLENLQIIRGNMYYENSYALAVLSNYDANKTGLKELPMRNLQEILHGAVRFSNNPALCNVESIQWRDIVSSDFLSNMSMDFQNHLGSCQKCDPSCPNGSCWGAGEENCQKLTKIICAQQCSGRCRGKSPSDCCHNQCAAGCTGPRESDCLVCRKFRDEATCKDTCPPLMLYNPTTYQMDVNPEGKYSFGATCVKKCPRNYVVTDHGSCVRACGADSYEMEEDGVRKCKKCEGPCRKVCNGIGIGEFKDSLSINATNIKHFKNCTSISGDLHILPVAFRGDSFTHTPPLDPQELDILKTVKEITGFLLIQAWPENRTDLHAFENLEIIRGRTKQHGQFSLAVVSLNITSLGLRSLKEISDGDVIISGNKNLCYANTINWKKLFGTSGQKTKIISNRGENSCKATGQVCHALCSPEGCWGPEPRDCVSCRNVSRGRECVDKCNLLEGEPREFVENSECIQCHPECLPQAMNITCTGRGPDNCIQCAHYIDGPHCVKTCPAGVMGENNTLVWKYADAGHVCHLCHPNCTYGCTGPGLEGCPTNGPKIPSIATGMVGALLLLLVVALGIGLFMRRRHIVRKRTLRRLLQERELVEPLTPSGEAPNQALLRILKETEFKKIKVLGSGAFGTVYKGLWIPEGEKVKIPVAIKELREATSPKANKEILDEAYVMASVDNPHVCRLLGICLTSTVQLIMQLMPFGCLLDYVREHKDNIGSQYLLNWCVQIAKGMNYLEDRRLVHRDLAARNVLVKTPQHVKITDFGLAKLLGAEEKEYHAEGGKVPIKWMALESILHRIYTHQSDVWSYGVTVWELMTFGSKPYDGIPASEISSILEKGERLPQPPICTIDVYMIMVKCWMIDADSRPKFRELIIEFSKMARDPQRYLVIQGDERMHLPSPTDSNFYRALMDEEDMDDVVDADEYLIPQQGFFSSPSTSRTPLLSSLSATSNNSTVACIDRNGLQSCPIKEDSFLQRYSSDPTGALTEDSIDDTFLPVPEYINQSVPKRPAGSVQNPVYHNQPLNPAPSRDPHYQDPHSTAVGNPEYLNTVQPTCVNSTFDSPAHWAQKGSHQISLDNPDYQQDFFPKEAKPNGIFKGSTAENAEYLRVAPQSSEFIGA

SMILES | inhibition of EGFR (T790M) versus wild type (EGFR (T790M)) | B-Raf (Raf) inhibition, in words (B-Raf) | phospho-Ret and downstream biomarkers [1] | cell death (protein markers of apoptosis) [1] | notum, scutellum and cuticle defects of ptc>dRetMEN2B adults (ptc>dRet^MEN2B flies) | animals rescued / developing to adulthood (ptc>dRet^MEN2B flies; [4]) | rescue of ptc>dRetMEN2B viability (pupae, adults), in words (ptc>dRet^MEN2B flies; [4]) | effect of reducing dTor on drug efficacy/toxicity (ptc>dRet^MEN2B flies; ptc>dRetMEN2B dTor-/+) | effect of reducing erk gene dosage on drug efficacy in viability assay (ptc>dRet^MEN2B flies) | S6K inhibition, in words (S6K) | number of kinases inhibited at a cutoff of greater than 80% inhibition [2] | sensitivity to erlotinib [3] | induction of apoptosis (AnnexinV/PI positive cells) (TPC1 cells; combination with MEK inhibitor PD325901, 72 h) | induction of apoptosis (AnnexinV/PI positive cells) (TPC1 cells; single agent, 72 h)
CC(C)n1nc(-c2ccc(NC(=O)Nc3cccc(C(F)(F)F)c3)cc2)c2c(N)ncnc21 [AD57] | retained or improved on inhibition | potent inhibitor | potent inhibitors | induce cell death | strongly suppressed; also recorded: complete suppression of notum and scutellum defects; also recorded: some cuticle defects | approximately 25% | best single-agent hit; also recorded: potently suppressed | dominantly suppressed the efficacy | considerably enhanced the efficacy | potent inhibitor | most | confer dose-dependent sensitivity to erlotinib | – | –
CC(C)n1nc(-c2ccc(NC(=O)Nc3cc(C(F)(F)F)ccc3F)cc2)c2c(N)ncnc21 [AD80] | – | inhibited | potent downregulation of phospho-Ret; also recorded: potent inhibitors | induce cell death | phenotypically normal | – | improved rescue relative to AD57 | – | did not alter efficacy | inhibited | – | confer dose-dependent sensitivity to erlotinib | robust induction of apoptosis | does not lead to induction of apoptosis
